Measurements taken from patent US20070203209A1, “Useful indole compounds” (priority 2005, published 2007).

What follows are molecules tested on ovalbumin-induced eosinophil induction (eosinophils in BAL fluid) (assay: Rat Ovalbumin Model (ovalbumin-induced airway cell proliferation and inflammation)). Conditions: ability to prevent ovalbumin-induced eosinophil induction (percentage of eosinophils in BAL fluid); test compounds dosed orally at 5 mg/kg twice daily, days 5-12; samples 24 hours after last OVA challenge.
Type: in vivo, Brown Norway rats
Protocol: Complete protocol details can be found in Eynott et al. (2003. J. Pharmacol. Ther. 304:22-29). Briefly, Brown Norway rats are sensitized on days 1, 2, and 3 with intraperitoneal (i.p.) injections of lmg ovalbumin (OVA) and 100 mg Al(OH)3 in 1 mL 0.9% NaCl saline. They are then exposed to either 0.9% NaCl saline or 1% OVA aerosol every 3rd day (days 6, 9, & 12) for 30 minutes. 2 mg/kg dexamethasone is used as a positive control and is dosed i.p. once a day on days 4, 5, 6, 9, & 12. Vehicle (15% β-cyclodextrins in DMSO) and test compounds are dosed orally twice a day on days 5-12. On challenge days, all animals are treated 1 hour prior to OVA allergen exposure and, if required for twice a day treatment, ˜4-8 hours after allergen exposure. Samples are collected 24 hours after the last OVA challenge. For sample collection, rats are anaesthetized by administration of 10 mg/kg xylazine and 60 mg/kg ketamine intraperitoneally. Once the rats were fully anesthetized, blood is collected for serum via the retro-orbital route. The rats are subsequently perfused by injecting 30 mL PBS through the right ventricle of the heart after the abdominal aorta is severed. A tracheostomy is then performed and bronchoalveolar lavage fluid (BAL) is collected through five 5 mL rinses using Hank's Balanced Salt Solution, which was kept on ice. Airway inflammatory cell accumulation and proliferation of cells are measured through the BAL fluid collection and subsequent cell counts. Cytospin slides are prepared and eosinophil % are determined by counting ˜400 cells per slide. The test compounds are dosed at 5 mg/kg twice daily. Activity is scored based on the ability of the test compound to prevent ovalbumin-induced eosinophil induction (as determined by percentage of eosinophils in BAL fluid).

Structure (SMILES)	Activity (P < 0.05)
Cc1cc2c(CC(=O)O)c(C)n(Cc3nc4ccccc4s3)c2cc1Cl [[1-(1,3-benzothiazol-2-ylmethyl)-6-chloro-2,5-dimethyl-1H-indol-3-yl]acetic acid]	no
Cc1c(CC(=O)O)c2cc(F)c(Cl)cc2n1Cc1nc2ccccc2s1 [[1-(1,3-benzothiazol-2-ylmethyl)-6-chloro-5-fluoro-2-methyl-1H-indol-3-yl]acetic acid]	no
COc1cc2c(CC(=O)O)c(C)n(Cc3nc4ccccc4s3)c2cc1Cl [[1-(1,3-benzothiazol-2-ylmethyl)-6-chloro-5-methoxy-2-methyl-1H-indol-3-yl]acetic acid]	no
COc1cc2c(CC(=O)O)c(C)n(Cc3cccc(Br)c3)c2cc1Cl [[1-(3-bromobenzyl)-6-chloro-5-methoxy-2-methyl-1H-indol-3-yl]acetic acid]	no
COc1cc2c(CC(=O)O)c(C)n(Cc3cc(Cl)cc(Cl)c3)c2cc1Cl [[6-chloro-1-(3,5-dichlorobenzyl)-5-methoxy-2-methyl-1H-indol-3-yl]acetic acid]	no
COc1cc2c(CC(=O)O)c(C)n(Cc3cccc(Cl)c3)c2cc1Cl [[6-chloro-1-(3-chlorobenzyl)-5-methoxy-2-methyl-1H-indol-3-yl]acetic acid]	no
Cc1c(CC(=O)O)c2c(Cl)cc(Cl)cc2n1Cc1cccc(OC(F)(F)F)c1 [{4,6-dichloro-2-methyl-1-[3-(trifluoromethoxy)benzyl]-1H-indol-3-yl}acetic acid]	no
Cc1c(CC(=O)O)c2cc(Cl)c(Cl)cc2n1Cc1cccc(OC(F)(F)F)c1 [{5,6-dichloro-2-methyl-1-[3-(trifluoromethoxy)benzyl]-1H-indol-3-yl}acetic acid]	no
Cc1cc2c(CC(=O)O)c(C)n(Cc3cccc(OC(F)(F)F)c3)c2cc1Cl [{6-chloro-2,5-dimethyl-1-[3-(trifluoromethoxy)benzyl]-1H-indol-3-yl}acetic acid]	yes
Cc1cc2c(CC(=O)O)c(C)n(Cc3cccc(C(F)(F)F)c3)c2cc1Cl [{6-chloro-2,5-dimethyl-1-[3-(trifluoromethyl)benzyl]-1H-indol-3-yl}acetic acid]	no
Cc1c(CC(=O)O)c2cc(F)c(Cl)cc2n1Cc1cccc(OC(F)(F)F)c1 [{6-chloro-5-fluoro-2-methyl-1-[3-(trifluoromethoxy)benzyl]-1H-indol-3-yl}acetic acid]	no
COc1cc2c(CC(=O)O)c(C)n(Cc3cccc(OC(F)(F)F)c3)c2cc1Cl [{6-chloro-5-methoxy-2-methyl-1-[3-(trifluoromethoxy)benzyl]-1H-indol-3-yl}acetic acid]	yes
COc1cc2c(CC(=O)O)c(C)n(Cc3cccc(C(F)(F)F)c3)c2cc1Cl [{6-chloro-5-methoxy-2-methyl-1-[3-(trifluoromethyl)benzyl]-1H-indol-3-yl}acetic acid]	no
